Data: patent US6828106B2, “Methods and compositions using coiled binding partners” (Cyclacel Limited, priority 1999, dated 2004)

How the values were obtained:
TEV protease [1] = biological target: T1, TEV protease (Tobacco etch virus, UniProt P04517); experiment: TEV protease FRET assay with homodimer-forming reporter peptide; type: biochemical; details: 0.05-100 mM iodacetamide added prior to TEV protease; 6 μM reporter peptide, 30° C.; FIG. 9; read-out: IC50 value (TEV protease inhibitor iodacetamide) as determined by FRET analysis
T1 construct: Proteolytic cleavage was initiated by the addition of TEV protease (20U, Gibco Life Technologies); histidine tag; purchased Gibco Life Technologies
T1 sequence (P04517 2038-2279): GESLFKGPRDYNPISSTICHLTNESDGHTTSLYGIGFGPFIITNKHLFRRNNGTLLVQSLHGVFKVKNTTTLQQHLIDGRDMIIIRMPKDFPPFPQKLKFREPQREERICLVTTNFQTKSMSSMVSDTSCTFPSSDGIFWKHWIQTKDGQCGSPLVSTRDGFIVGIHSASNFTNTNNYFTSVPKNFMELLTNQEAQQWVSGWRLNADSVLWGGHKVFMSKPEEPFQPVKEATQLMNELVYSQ
Experimental: (§1) TEV protease activity and inhibition of TEV protease activity was determined by using a peptide capable of forming a homodimer, wherein homodimer formation is decreased following TEV protease cleavage of the peptide, according to the following method.
For FRET analysis the reporter peptide (KGR MRCLEDR VENLYSQ SYHLENE VARLRRL VGELAAK) (SEQ ID NO: 32) was labeled with fluorescein or rhodamine. The labeled peptides were incubated at a total peptide concentration of 6 μM (6:1 ratio, R:F) in 50 mM Tris pH 8, and 0.5 mM EDTA, and 1 mM DTT at 30° C. for 15 minutes in a total volume of 100 μl. Proteolytic cleavage was initiated by the addition of TEV protease (20U, Gibco Life Technologies), and monitored during the time course of the reaction by measuring the emission of fluorescein (excitation 485 nm, emission 520 nm) over time. Initial rates of change of fluorescein emission were determined for the linear portion of the reaction.
(§2) The activity of the TEV protease inhibitor iodacetamide was determined by FRET or FP assays performed as described above in the absence of iodacetamide or in the presence of 0.05-100 mM iodacetamide added prior to the addition of TEV protease. The results of these experiments are presented in FIG. 9 (FRET assay) and FIG. 11 (FP assay).

TEV protease [2] = biological target: T1, TEV protease; experiment: TEV protease FP assay with homodimer-forming reporter peptide; type: biochemical; details: 0.05-100 mM iodacetamide added prior to TEV protease; 6 μM reporter peptide, 30° C.; read-out: IC50 value (TEV protease inhibitor iodacetamide) as determined by FP analysis
Experimental: as §1
For FP analysis the reporter peptide (sequence recited above) was labeled with fluorescein or with biotin. The labeled peptides were incubated at a total peptide concentration of 6 μM (6:1 ratio, biotin:F) in 50 mM Tris, pH 8, 0.5 mM EDTA, 0.1 mg/ml BSA and 1 mM DTT at 30° C. for 5 minutes in a total volume of 100 μl. Proteolytic cleavage was initiated by the addition of TEV protease (20U), and monitored during the reaction time course by measuring the polarization of fluorescein (excitation 485 nm, emission 520 nm) over time. Initial rates of change of fluorescein polarization were determined for the linear portion of the reaction.
as §2

For `NC(=O)CI` [iodacetamide, reference compound], the IC50 (TEV protease [1]) was 885 µM and the IC50 (TEV protease [2]) was 1000 µM.
